Experimental data reported in the supplement of paper PMC10290057.
“And” between values parts separate entries of the source, which are not always exact repeats. Equal entries are not always repeated. Structures can show the parent of a compound that is named as a salt.

Tested on: HCT116
Assay: efficacy (fitted maximal change in viability relative to DMSO control); higher = less cytotoxic (negative = loss of viability)
Conditions: 48 h
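Note: Luminescence-based viability readout, five doses per compound, normalized against on-plate DMSO and empty-well controls, followed by dose-response curve fitting for every drug.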

SMILES	efficacy
CCCn1c(=O)c2[nH]c(-c3cnn(Cc4cccc(C(F)(F)F)c4)c3)nc2n(CC)c1=O [CVT-6883]	-14.4%
Cc1nc(C)c(CN2CCN(C(c3ccc(F)cc3)c3ccc(F)cc3)CC2)nc1C [CXC-195]	-77.3%
C=C1/C(=C\C=C2/CCC[C@]3(C)[C@@H]([C@H](C)CCCC(C)(C)O)CC[C@@H]23)C[C@@H](O)C[C@@H]1O [Calcitriol]	-65% and -62.8%
N/C1=N/C(=O)C/2=C(NC[C@@H](CNC3=CC=C(C=C3)C(=O)N[C@@H](CCC([O-])=O)C([O-])=O)N2C=O)\N1 [Calcium folinate]	-9.49%
CCCC[C@@H](C=O)NC(=O)[C@H](CC(C)C)NC(=O)OCc1ccccc1 [Calpeptin]	-29.4%
CC[C@@]1(O)C(=O)OC\C2=C1\C=C\3N(CC4=C3N=C5C=CC=CC5=C4)C2=O [Camptothecin]	-65.5%
CNC(=O)c1ccc(-c2cnc3ncc(Cc4ccc5ncccc5c4)n3n2)cc1F [Capmatinib]	-28.8%
COc1cc(CNC(=O)CCCC/C=C/C(C)C)ccc1O [Capsaicin]	-16.7%
COc1ccc(Nc2nccc(NCCO)n2)cc1 [Cardiogenol]	-11.7%
O=NN(CCCl)C(=O)NCCCl [Carmustine]	-15.1%
CCN(CC)CCN1C(=O)\C(=N/C2=CC=CC=C12)CC3=CC=C(OC)C=C3 [Caroverine]	-15.9%
CC(C)C[C@H](NC(=O)[C@H](Cc1ccccc1)NC(=O)OCc1ccccc1)C(=O)C=O [Cathepsin S Inhibitor]	-64.5%
CCN1CCN(C(=O)N[C@@H](C(=O)N[C@H]2[C@H]3SC\C(=C(/N3C2=O)C(O)=O)CSC4=NN=N[N]4C)C5=CC=C(O)C=C5)C(=O)C1=O [Cefoperazone (sodium salt)]	-15.8%
Cc1nnc(C(C)C)n1C1CC2CCC(C1)N2CCC(NC(=O)C1CCC(F)(F)CC1)c1ccccc1 (configuration not stated) [Celsentri (Maraviroc)]	17%
CC[S+](=O)([O-])N1CCN(c2ccc(Nc3ncc(C(N)=O)c(NC4CC4)n3)cc2)CC1 [Cerdulatinib]	-88.9%
COc1ccc2c(c[n+](C)c3c4cc5c(cc4ccc23)OCO5)c1OC [Chelerythrine chloride]	-83.2%
C[C@H](CCC(=O)O)[C@H]1CC[C@H]2[C@@H]3[C@H](O)C[C@@H]4C[C@H](O)CC[C@]4(C)[C@H]3CC[C@]12C [Chenodeoxycholic acid]	-16%
CCN(CC)CCCC(C)Nc1ccnc2cc(Cl)ccc12 (configuration not stated) [Chloroquine]	-24.3%
N[S+]([O-])(=O)C1=C(Cl)C=C2\N=C/N[S+]([O-])(=O)C2=C1 [Chlorothiazide]	-4.38%
Cc1cc(O)c2c(c1)C(=O)c1cccc(O)c1C2=O [Chrysophanol]	-8.65%
NC/1=N/C(=O)N(C[C@@H](CO)OC[P](O)(O)=O)/C=C1 [Cidofovir]	7.03%
CC(C)[C@H]1C(=O)N[C@@H](CCCN=C(N)N)C(=O)NCC(=O)N[C@@H](CC(=O)O)C(=O)N[C@H](Cc2ccccc2)C(=O)N1C [Cilengitide]	-11%
O=C1CCc2cc(OCCCCc3nnnn3C3CCCCC3)ccc2N1 [Cilostazol]	-26.7%
O=C(O)CCCCN(CCc1ccccc1OCc1ccc(CCc2ccccc2)cc1)Cc1ccc(C(=O)O)cc1 [Cinaciguat]	-11.7%

SMILES	efficacy
C=C[C@H]1CN2CCC1C[C@@H]2[C@@H](O)c1ccnc2ccccc12 (some centres not stated) [Cinchonine dihydrochloride]	-36.1%
CC(C)(Oc1ccc(C2CC2(Cl)Cl)cc1)C(=O)O (configuration not stated) [Ciprofibrate]	-6.71%
[NH2][Pt]([NH2])([Cl])[Cl] [Cisplatin]	-25%
CCC[C@@H]1C[C@@H](C(=O)N[C@@H]([C@H]2O[C@H](SC)[C@H](O)[C@@H](O)[C@H]2O)[C@H](C)Cl)N(C)C1 [Clindamycin HCl]	-14.1%
CCCCCCCCCCCCCCCC(=O)O[C@@H]1[C@@H](O)[C@@H](O)[C@@H]([C@H](NC(=O)[C@@H]2C[C@@H](CCC)CN2C)[C@H](C)Cl)O[C@@H]1SC.Cl [Clindamycin palmitate]	-24.9%
CCC(=O)O[C@@]1([C@@H](C)C[C@H]2[C@@H]3CCC/4=C/C(=O)/C=C\[C@]4(C)[C@@]3(F)[C@@H](O)C[C@]12C)C(=O)CCl [Clobetasol propionate]	-57.1%
Nc1nc(Cl)nc2c1ncn2[C@@H]1O[C@H](CO)[C@@H](O)[C@@H]1F [Clofarabine]	-51.1%
CN(C)CCCN1c2ccccc2CCc2ccc(Cl)cc21 [Clomipramine hydrochloride]	-84.3%
COC(=O)[C@H](c1ccccc1Cl)N1CCc2sccc2C1 [Clopidogrel bisulfate]	-22.3%
Nc1cc(c(cc1S(=O)(N)=O)S(N)(=O)=O)C(/Cl)=C(/Cl)Cl [Clorsulon]	-7.71%
COC1=C(OC)C(=O)C(C/C=C(\C)CC/C=C(\C)CC/C=C(\C)CC/C=C(/C)CC/C=C(\C)CC/C=C(\C)CC/C=C(\C)CC/C=C(\C)CC/C=C(\C)CCC=C(C)C)=C(C)C1=O [Coenzyme Q10]	7.5%
CN(Cc1ccccc1)C(=O)c1ccc([S+](=O)([O-])Nc2ccccc2)cc1 [Compound 2]	-20.4%
CN[C@@H](C)C(=O)N[C@@H]1C(=O)N(Cc2c(C)ccc3ccccc23)c2ccc(C#N)cc2N(C(C)=O)[C@H]1C [Compound 36]	-26%
Nc1ncnc2c1ncn2[C@@H]1O[C@H](CO)C[C@H]1O [Cordycepin]	-20.6%
CC(=O)OCC(=O)[C@@]1(O)CC[C@H]2[C@@H]3CCC/4=C/C(=O)CC[C@]4(C)[C@H]3C(=O)C[C@]12C [Cortisone acetate]	22.5%
C[C@@H]1C[C@H]2[C@@H]3\C=C(C)/C4=C/C5=C(C[C@]4(C)[C@H]3[C@@H](O)C[C@]2(C)[C@@]1(O)C(=O)COC(C)=O)C=N[N]5C6=CC=CC=C6 [Cortivazol]	-25.2%
C/C=C/C(=O)N(CC)c1ccccc1C [Crotamiton]	6.9%
C[C@H]1COC/2=C1/C(=O)C(=O)C3=C4CCCC(C)(C)C4=CC=C23 [Cryptotanshinone]	-30%
C=C1C[C@@]2(O)O[C@@]3(C[C@H]2C(C)C)[C@@H](C)CC[C@@H]13 [Curcumol]	-14.1%
COc1ccc(CCN2CCN(CCCc3ccccc3)CC2)cc1OC [Cutamesine hydrochloride]	-28.5%
CN[C@@H](C)[C@H]1[C@H](O)C[C@@]2(C)[C@@H]3CC[C@H]4C(C)(C)[C@@H](NC)CC[C@@]45C[C@@]35CC[C@]12C [Cyclovirobuxin D]	-29.5%
CC(C)C(N)C(=O)OCC(CO)OC[N]1C=NC2=C1N\C(=N/C2=O)N (configuration not stated) [Cymeval]	-19.5%
CC(=O)O[C@@]1(CC[C@H]2[C@@H]3\C=C(Cl)/C4=C/C(=O)[C@@H]5C[C@@H]5[C@]4(C)[C@H]3CC[C@]12C)C(C)=O [Cyproterone acetate]	-60.6%
NC\1=N\C(=O)N(\C=C1)[C@@H]2O[C@H](CO)[C@@H](O)[C@H]2O [Cytidine]	-11.1%

SMILES	efficacy
O=C1\C=C/C=C2/[C@H]3CNC[C@H](C3)CN12 [Cytisine]	-21.9%
O=C(O)c1ccc(CCCc2ccc(OCCc3ccc(F)cc3)cc2)o1 [D-942]	-66.5%
NC(=O)c1ccc(-c2nc(-c3ccc4c(c3)OCCO4)c(-c3ccccn3)[nH]2)cc1 [D-4476]	-84.9%
N[C@@H]1CONC1=O [D-Cycloserine]	-29.8%
Cn1c(CNc2ccc(C(=N)N)cc2)nc2cc(C(=O)N(CCC(=O)O)c3ccccn3)ccc21 [Dabigatran]	-8.84%
CC(C)(C)c1nc(-c2cccc(N[S+](=O)([O-])c3c(F)cccc3F)c2F)c(-c2ccnc(N)n2)s1 [Dabrafenib]	-29.3%
COC(=O)N[C@H](C(=O)N1CCC[C@H]1c1ncc(-c2ccc(-c3ccc(-c4cnc([C@@H]5CCCN5C(=O)[C@@H](NC(=O)OC)C(C)C)[nH]4)cc3)cc2)[nH]1)C(C)C [Daclatasvir dihydrochloride]	-112%
OC1=CC=C(C=C1)\C2=C\OC3=C(C=CC(=C3)O)C2=O [Daidzein]	12.4%
OC[C@H]1O[C@@H](OC2=CC3=C(C=C2)C(=O)\C(=C/O3)C4=CC=C(O)C=C4)[C@H](O)[C@@H](O)[C@@H]1O [Daidzin]	-23.3%
CCC(CC)CC1(C(=O)Nc2ccccc2SC(=O)C(C)C)CCCCC1 [Dalcetrapib]	-17.1%
CN(C)NC(=O)CCC(=O)O [Daminozide]	-8.97%
O=C(O)CNC(=O)C1C(=O)N(C2CCCCC2)C(=O)N(C2CCCCC2)C1=O [Daprodustat]	-6.36%
COc1cccc2c1C(=O)c1c(O)c3c(c(O)c1C2=O)C[C@@](O)(C(C)=O)C[C@@H]3O[C@H]1C[C@H](N)[C@H](O)[C@H](C)O1 [Daunorubicin]	-77.4%
CC(=O)OCC(=O)[C@@]12\N=C(C)/O[C@@H]1C[C@H]3[C@@H]4CCC/5=C/C(=O)/C=C\[C@]5(C)[C@H]4[C@@H](O)C[C@]23C [Deflazacort]	9%
C[C@]12CC[C@H]3[C@@H](C\C=C/4C[C@@H](O)CC[C@]34C)[C@@H]1CCC2=O [Dehydroepiandrosterone]	-17%
C[C@@H](CN1CC(=O)NC(=O)C1)N1CC(=O)NC(=O)C1 [Dexrazoxane hydrochloride]	-22.3%
O=C([O-])Cc1ccccc1Nc1c(Cl)cccc1Cl [Diclofenac sodium]	-6.7%
N[S+](=O)([O-])c1cc(Cl)c(Cl)c([S+](N)(=O)[O-])c1 [Diclofenamide]	-19.2%
C/C=C(/C(=C/C)c1ccc(O)cc1)c1ccc(O)cc1 [Dienestrol]	-63.7%
C[C@]12CCC\3=C\4CCC(=O)\C=C4CC[C@H]3[C@@H]1CC[C@@]2(O)CC#N [Dienogest]	-15.9%
OC1=CC2=C(C(=C1)O)C(=O)\C=C(/O2)C3=CC(=C(O)C=C3)O [Digitoflavone]	-77.5%
c1ccc2c(Cc3c[nH]c4ccccc34)c[nH]c2c1 [Diindolylmethane]	-49.5%
COc1ccc([C@@H]2Sc3ccccc3N(CCN(C)C)C(=O)[C@@H]2OC(C)=O)cc1 [Diltiazem hydrochloride]	-17.5%
COC(=O)/C=C/C(=O)OC [Dimethyl fumarate]	-18.4%
